The values below come from article PMC8568133, “Evaluation of bisphenylthiazoles as a promising class for combating multidrug-resistant fungal infections” (PLoS ONE, 2021).

One assay concerns MRSA USA300. The experiment in a line: Broth microdilution MIC, initial antibacterial screening. It is filed as cell-based, S. aureus. As to conditions: Staphylococcus aureus; MRSA USA300; read-out: MIC. The gist of the method: (§1)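 Broth microdilution per CLSI with ~5 × 10^5 CFU/mL inoculum and serially diluted compounds. S. aureus and E. coli were tested in CAMHB, aerobic, 37 °C, 18–20 h; C. difficile in supplemented brain heart infusion broth (yeast extract, hemin, vitamin K), anaerobic, 37 °C, 48 h. MIC read as visible growth.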
For orientation: In broth dilution the organism is exposed to a series of concentrations in liquid medium.

The test system of assay [1] is C. difficile ATCC BAA1870. Briefly: Broth microdilution MIC, initial antibacterial screening (anaerobic). Type of assay: cell-based, Clostridioides difficile. To be noted: Clostridioides difficile, ATCCBAA1870, read-out: MIC. A digest of the protocol: as §1
Assay [2] deals with E. coli JW55031 (tolC-mutant). Briefly: microbe, parasite or virus in culture. Type of assay: cell-based, Escherichia coli. To be noted: Escherichia coli. The gist of the method: as §1
Assay [3] relates to E. coli BW25113 (wild-type). Briefly: Broth microdilution MIC, initial antibacterial screening. Type of assay: cell-based, Escherichia coli. To be noted: Escherichia coli, read-out: MIC. The gist of the method: as §1
A further assay relates to Cryptococcus gattii. Briefly: Antifungal broth microdilution MIC (50% growth inhibition, 48 h). Type of assay: cell-based. To be noted: Cryptococcus gattii, read-out: MIC. A digest of the protocol:
(§2)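 Read-out was the lowest concentration inhibiting fungal growth by 50% (MIC) or reducing it by 99.9% after subculture onto YPD agar (MFC). Testing followed CLSI broth microdilution on clinical isolates at 35 °C, 24 h for Candida and 48 h for Cryptococcus.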

Another assay concerns Cryptococcus neoformans. Described as above. It is filed as cell-based. As to conditions: Cryptococcus neoformans, read-out: MIC. The gist of the method:
as §2

Another assay relates to Aspergillus fumigatus. The experiment in a line: Antifungal broth microdilution MIC (50% growth inhibition). Type of assay: cell-based. As to conditions: Aspergillus fumigatus. The gist of the method:
as §2

In a further assay the test system is Candida parapsilosis. The description is as above. As to conditions: Lodderomyces parapsilosis, read-out: MIC. It is filed as cell-based. The gist of the method: as §2
The subject of a further assay is Candida strains. Briefly: Minimum fungicidal concentration, summary over Candida strains. Type of assay: cell-based. As to conditions: strains of Table 6. The protocol:
Serial dilutions (from 128 μg/mL to 0.06 μg/mL) of the tested compounds and control drugs (fluconazole, itraconazole and amphotericin) (in triplicates), were screened against clinical isolates of Candida albicans, Candida auris, Candida glabrata, Candida parapsilosis, Candida tropicalis, Candida krusei, Cryptococcus neoformans, Cryptococcus gattii and Aspergillus fumigatus species using the broth microdilution method according to the Clinical and Laboratory Standards Institute guidelines. MICs were determined as the lowest concentration of the compounds that inhibited the fungal growth by 50% after incubation at 35 °C for 24 h (for Candida and Aspergillus), or 48 h (for Cryptococcus). The minimum fungicidal concentration (MFC) of these compounds was tested by plating 4 μL from wells with no growth onto YPD agar plates. The plates were incubated at 37 °C for 24 hours before recording the MFC, which was categorized as the lowest concentration that reduced fungal growth by 99.9% [45]. The experiment was repeated three independent times.

Converted amounts (≈) assume the structure as drawn. Like-named read-outs stand apart in the source and are kept apart here. Bounds are passed on as bounds.

`Cc1nc(-c2ccc(-c3ccccc3)cc2)sc1-c1nnc(N[C@@H]2CCCC[C@@H]2N)o1` (relative stereo) [Compound 17, cis-N-{5-[2-((1,1’-Biphenyl)-4-yl)-4-methylthiazol-5-yl]-1,3,4-oxadiazol-2-yl}cyclo-hexane-1,2-diamine]: the MIC with MRSA USA300 was greater than 64 µg/mL; in assay [1] it was 64 µg/mL (≈ 148 µM); in assay [2], greater than 64 µg/mL; in [3], greater than 64 µg/mL; in the assay with Cryptococcus gattii (C. gattii NR 43209), 0.5 µg/mL (≈ 1.16 µM); with Cryptococcus gattii (C. gattii NR 43210), 0.5 µg/mL (≈ 1.16 µM). The MIC in the assay with Cryptococcus neoformans (C. neoformans NR 41298) was determined as 1 µg/mL (≈ 2.32 µM); in the assay on Cryptococcus neoformans (C. neoformans NR 41300) it was 1 µg/mL (≈ 2.32 µM); in the assay with Cryptococcus neoformans (C. neoformans NR 48770), 1 µg/mL (≈ 2.32 µM); with Aspergillus fumigatus (A. fumigatus NR 35303, read-out: MIC), 4 µg/mL (≈ 9.27 µM); with Aspergillus fumigatus (A. fumigatus NR 35304, read-out: MIC), 4 µg/mL (≈ 9.27 µM); in the assay with Aspergillus fumigatus (tested A. fumigatus isolates (Table 5), read-out: MIC against Aspergillus fumigatus), 4 µg/mL (≈ 9.27 µM). The MIC worked out at 1 µg/mL (≈ 2.32 µM) in the assay on Candida parapsilosis (ATCC22019, C. parapsilosis ATCC 22019) and 1 µg/mL (≈ 2.32 µM) in the assay with Candida parapsilosis (C. parapsilosis CAB 502638). Moreover, the “fungistatic or fungicidal activity” value with Candida strains is “fungistatic”.
